Data reported in patent US4973472A, “Dental plaque inhibitor” (Senju Pharmaceutical Col., Ltd., priority 1988, dated 1990).

What was measured:
GTase = assay: GTase-inhibitory activity (formation of insoluble glucan from sucrose, turbidity at 550 nm); assay type: biochemical, Streptococcus mutans ATCC 33402; conditions: for Optical density of reaction system: 550 nm
Method: The enzyme GTase was prepared from Streptococcus mutans and using sucrose as the substrate, the inhibitory effect of the test substances on the formation of insoluble glucan was determined.
The preparation of GTase was carried out in accordance with the description in Methods for Isolation of Microorganisms (Kazue Yamazato (ed.): R&D Planning), page 733, (1) Preparation of cell-free GTase. Thus, Streptococcus mutans ATCC 33402 was cultured (inoculum size 1%) in brain heart infusion broth (Difco; hereinafter referred to as BHI medium) under stationary conditions at 37° C. for 18 hours and the resulting culture was centrifuged at 4,000 rpm for 10 minutes. The supernatant was taken and ammonium sulfate was added at a final concentration of 60% saturation. The mixture was gently stirred at 4° C. overnight for salting-out and the precipitate was dissolved in 5 mM potassium phosphate buffer (pH 6.5). This solution was then dialyzed against the same buffer at 4° C. overnight to give a crude GTase preparation.
The assay of GTase activity was carried out by the method described in Methods for Isolation of Microorganisms (ibid), page 733, (2) Assay of activities in microbial culture filtrates with minor modification. Thus, the solution prepared as per Tables 1 and 2 was used as a test solution and the corresponding solution prepared by using the same quantity of distilled water in lieu of the test substance solution in otherwise the same composition was used as a control solution. Test tubes were filled with 5 ml aliquots of the test solution or the control solution and allowed to stand in upright position at 37° C. for 16 hours. After completion of the reaction each tube was shaken well to agitate the reaction system and the optical density at 550 nm was measured to find the degree of turbidity. The inhibitory activity of the test substance against GTase was calculated as a percentage with the turbidity of the control reaction system being taken as 100%. […]
Among the substances falling under the purview of the present invention, those mentioned in Table 3 (Substances 1 through 6) were used as test substances.
For each of the substances mentioned in Table 3, the GTase activity at the test substance concentration of 0.5% in the reaction system was assayed to estimate the inhibitory activity of the test substance.
For Substance 1, GTase activity was assayed in the reaction system corresponding to each concentration of the test substance in the range of 0.01% to 1.0% and to obtain correlation between inhibitory activity and test substance concentration.
For Substance 1 at a concentration of 0.5%, either aqueous sodium hydroxide solution or hydrochloric acid was added to portions of the substrate-test substance solution shown in Table 1 to prepare solutions adjusted to pH 4, 5, 6, 7 and 8, respectively, and using each of these solutions, the reaction was carried out at the corresponding pH. The GTase activity at each pH was assayed and the correlation between reaction system pH and inhibitory activity was studied.

Streptococcus mutans = assay: Prevention of the adhesion of tooth decaying bacteria to the human tooth; assay type: cell-based, Streptococcus mutans ATCC 330402; conditions: 0.5% Substance 1; BHI medium with 5% sucrose; 37° C., 6 hours; scanning electron microscope x 4,000
Method: Two test tubes were respectively filled with BHI medium containing 5% of sucrose and a sterilized human tooth was suspended in each of the tubes using a stainless steel wire. After Substance 1 was added to one of the tubes at a final concentration of 0.5%, a culture of Streptococcus mutans ATCC 330402 grown in BHI medium at 37° C. for 18 hours was added to both tubes at a final concentration of 10^8 CFU/ml. The tubes were further incubated at 37° C. for 6 hours, at the end of which time the teeth were taken out, rinsed and observed with a scanning electron microscope at a magnification of x 4,000.

[1] = Table 4, 0.5% test substance, 37° C., 16 hours, buffer pH 6.5
[2] = Table 4, 0.5% test substance, 37° C., 16 hours, buffer pH 6.5, control 0.55

SMILES: Cc1c(OP(=O)(O)OC2=C(O)C(C(O)CO)OC2=O)cc2c(c1C)OC(C)(CCCC(C)CCCC(C)CCCC(C)C)CC2 (centres unmarked) [Substance 3]
- % Inhibition (GTase; [1]): 94.5%
- Optical density of reaction system (GTase; [2]): 0.03

SMILES: Cc1cc(OP(=O)(O)OC2=C(O)C(C(O)CO)OC2=O)cc2c1OC(C)(CCCC(C)CCCC(C)CCCC(C)C)CC2 (centres unmarked) [Substance 4]
- % Inhibition (GTase; [1]): 94.5%
- Optical density of reaction system (GTase; [2]): 0.03

SMILES: CC(C)CCCC(C)CCCC(C)CCCC1(C)CCc2cc(OP(=O)(O)OC3=C(O)C(C(O)CO)OC3=O)ccc2O1 (centres unmarked) [Substance 5]
- % Inhibition (GTase; [1]): 94.5%
- Optical density of reaction system (GTase; [2]): 0.03

SMILES: Cc1c(C)c2c(c(C)c1OP(=O)(O)OC1=C(O)C(C(O)CO)OC1=O)CCC(C)(CCCC(C)CCCC(C)CCCC(C)C)O2 (centres unmarked) [Substance 6]
- % Inhibition (GTase; [1]): 95.8%
- Optical density of reaction system (GTase; [2]): 0.02

SMILES: Cc1c(C)c2c(c(C)c1OP(=O)(O)OC1=C(O)C(C(O)CO)OC1=O)CCC(C)(CCCC(C)CCCC(C)CCCC(C)C)O2 (centres unmarked) [Substance 1]
- adherent bacterial cells and colonies on the tooth surface (FIG. 2) (Streptococcus mutans): neither adherent bacterial cells nor colonies
- adhesion of bacterial cells and subsequent formation of colonies on the tooth surface (Streptococcus mutans): completely inhibited
- inhibitory activity, dependence on concentration (GTase; 0.01% to 1.0%): concentration-dependent
- inhibition rates (GTase; 0.075% and higher concentrations): not less than 90%
- formation of insoluble glucan (GTase; 0.5%, pH range where GTase was active): very slight
- % Inhibition (GTase; [1]): 92.7%
- Optical density of reaction system (GTase; [2]): 0.04
- % Inhibition (GTase; Table 5, concentration 0.01%): 59.7%
- Optical density of reaction system (GTase; Table 5, concentration 0.01%, control 0.496): 0.20
- % Inhibition (GTase; Table 5, concentration 0.025%): 59.7%
- Optical density of reaction system (GTase; Table 5, concentration 0.025%, control 0.496): 0.20
- % Inhibition (GTase; Table 5, concentration 0.05%): 59.7%
- Optical density of reaction system (GTase; Table 5, concentration 0.05%, control 0.496): 0.20
- % Inhibition (GTase; Table 5, concentration 0.075%): 89.9%
- Optical density of reaction system (GTase; Table 5, concentration 0.075%, control 0.496): 0.05
- % Inhibition (GTase; Table 5, concentration 0.1%): 96.0%
- Optical density of reaction system (GTase; Table 5, concentration 0.1%, control 0.496): 0.02
- % Inhibition (GTase; Table 5, concentration 0.25%): 96.0%
- Optical density of reaction system (GTase; Table 5, concentration 0.25%, control 0.496): 0.02
- % Inhibition (GTase; Table 5, concentration 0.5%): 96.0%
- Optical density of reaction system (GTase; Table 5, concentration 0.5%, control 0.496): 0.02
- % Inhibition (GTase; Table 5, concentration 1.0%): 96.0%
- Optical density of reaction system (GTase; Table 5, concentration 1.0%, control 0.496): 0.02
- Optical density (GTase; Table 6, pH 4, 0.5% test substance, control 0.08): 0.05
- % Inhibition (GTase; Table 6, pH 5, 0.5% test substance): 71.4%
- Optical density (GTase; Table 6, pH 5, 0.5% test substance, control 0.35): 0.06
- % Inhibition (GTase; Table 6, pH 6, 0.5% test substance): 91.9%
- Optical density (GTase; Table 6, pH 6, 0.5% test substance, control 0.62): 0.05
- % Inhibition (GTase; Table 6, pH 7, 0.5% test substance): 94.9%
- Optical density (GTase; Table 6, pH 7, 0.5% test substance, control 0.59): 0.03
- Optical density (GTase; Table 6, pH 8, 0.5% test substance, control 0.05): 0.02
- inhibition rates (GTase; concentration of 0.01%): about 60%
- inhibition rate (GTase; pH 5, 0.5%): about 70%
- inhibition rate (GTase; pH 6 and 7, 0.5%): not less than 90%

SMILES: Cc1cc(OP(=O)(O)OC2=C(O)C(C(O)CO)OC2=O)c(C)c2c1OC(C)(CCCC(C)CCCC(C)CCCC(C)C)CC2 (centres unmarked) [Substance 2]
- % Inhibition (GTase; [1]): 94.5%
- Optical density of reaction system (GTase; [2]): 0.03
